Measured values published in patent US8119681B2, “2-[1-phenyl-5-hydroxy or methoxy-4alpha-methyl-hexahydrocyclopenta [ƒ]indazole-5-YL]ethyl phenyl derivatives as glucocorticoid receptor ligands” (Merck Sharp & Dohme Corp., priority 2006, dated 2012).

Target: T1, glucocorticoid receptor (GR) (Homo sapiens, UniProt P04150)
T1 construct: endogenous in cells; host or cells: HeLa (ATCC) cell lysate supernatant
T1 sequence (P04150 1-777): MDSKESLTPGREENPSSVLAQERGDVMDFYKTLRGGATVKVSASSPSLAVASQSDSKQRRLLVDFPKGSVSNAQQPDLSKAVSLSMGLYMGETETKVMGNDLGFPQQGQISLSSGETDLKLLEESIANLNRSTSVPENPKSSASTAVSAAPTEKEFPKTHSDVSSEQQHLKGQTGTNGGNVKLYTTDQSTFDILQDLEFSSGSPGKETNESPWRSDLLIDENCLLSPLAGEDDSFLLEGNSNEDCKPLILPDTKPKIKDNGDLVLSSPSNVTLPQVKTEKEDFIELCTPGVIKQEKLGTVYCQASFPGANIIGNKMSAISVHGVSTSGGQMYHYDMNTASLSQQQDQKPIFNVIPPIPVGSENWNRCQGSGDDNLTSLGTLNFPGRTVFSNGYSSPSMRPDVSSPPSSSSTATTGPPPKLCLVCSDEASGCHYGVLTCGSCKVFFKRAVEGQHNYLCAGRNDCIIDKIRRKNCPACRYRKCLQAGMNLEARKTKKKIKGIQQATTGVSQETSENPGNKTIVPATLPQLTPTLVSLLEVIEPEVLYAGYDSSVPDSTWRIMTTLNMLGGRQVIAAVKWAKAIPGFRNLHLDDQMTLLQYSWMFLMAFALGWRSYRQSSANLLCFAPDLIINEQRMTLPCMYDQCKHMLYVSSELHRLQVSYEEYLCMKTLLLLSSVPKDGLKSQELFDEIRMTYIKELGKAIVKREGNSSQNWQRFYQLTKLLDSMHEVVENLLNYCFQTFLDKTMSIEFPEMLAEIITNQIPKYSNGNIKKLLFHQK
Assay: Ligand binding assay (GR BIND), 3H-dexamethasone displacement, HeLa cell lysate
Description: Binding Buffer: TEGM (10 mM Tris-HCl, 1 mM EDTA, 10% glycerol, 1 mM beta-mercaptoethanol, 10 mM Sodium Molybdate, pH 7.2)
50% HAP Slurry: Calbiochem Hydroxylapatite, Fast Flow, in 10 mM Tris, pH 8.0 and 1 mM EDTA.
Wash Buffer: 40 mM Tris, pH7.5, 100 mM KCl, 1 mM EDTA and 1 mM EGTA.
Dexmethasone-methyl-^3H, (DEX*); (Amersham cat# TRK645)
Dexamethasone (DEX) (Sigma, cat# D1756):
Phenol red-free Trypsin-EDTA is diluted in the same PBS 1:10. The cell layers are rinsed with 1× Trypsin, extra Trypsin is poured out, and the cell layers are incubated at 37° C. for ˜2 min. The flask is tapped and checked for signs of cell detachment. Once the cells begin to slide off the flask, the complete media is added. The cells are counted at this point, then diluted to the appropriate concentration and split into flasks or dishes for further culturing (Usually 1:3 to 1:6 dilution).
Preparation of Hela Cell Lysate
The cell pellet is washed twice with TEGM (10 mM Tris-HCl, 1 mM EDTA, 10% glycerol, 1 mM beta-mercaptoethanol, 10 mM Sodium Molybdate, pH 7.2). After the final wash, the cells are resuspended in TEGM at a concentration of 10^7 cells/mL. The cell suspension is snap frozen in liquid nitrogen or ethanol/dry ice bath and transferred to −80° C. freezer on dry ice. Before setting up the binding assay, the frozen samples are left on ice-water to just thaw (˜1 hr). Then the samples are centrifuged at 12,500 g to 20,000 g for 30 min at 4° C. The supernatant is used to set-up assay right away. If using 50 μL of supernatant, the test compound can be prepared in 50 μL of the TEGM buffer.
Procedure for Multiple Compound Screening
1×TEGM buffer is prepared, and the isotope-containing assay mixture is prepared in the following order: EtOH (2% final concentration in reaction), 3H-DEX (Amersham Biosciences) and 1×TEGM. [e.g. For 100 samples, 200 μL (100×2) of EtOH+4.25 μL of 1:10 ^3H-Dex stock+2300 μL (100×23) 1×TEGM]. The compound is serially diluted, e.g., if starting final conc. is 1 μM, and the compound is in 25 μL of solution, for duplicate samples, 75 μL of 4×1 μM solution is made and 3 μL of 100 μM is added to 72 μL of buffer, and 1:5 serial dilution.
25 μL of ^3H-DEX (6 nM) trace and 25 μL compound solution are first mixed together, followed by addition of 50 μL receptor solution. The reaction is gently mixed, spun briefly at about 200 rpm and incubated at 4° C. overnight. 100 μL of 50% HAP slurry is prepared and added to the incubated reaction which is then vortexed and incubated on ice for 5 to 10 minutes. The reaction mixture is vortexed twice more to resuspend HAP while incubating reaction. The samples in 96-well format are then washed in wash buffer using The FilterMate™ Universal Harvester plate washer (Packard). The washing process transfers HAP pellet containing ligand-bound expressed receptor to Unifilter-96 GF/B filter plate (Packard). The HAP pellet on the filter plate is incubated with 50 μL of MICROSCINT (Packard) scintillant for 30 minutes before being counted on the TopCount microscintillation counter (Packard). IC50s are calculated using DEX as a reference.

[1] = Table 1, HeLa cell lysate, 3H-DEX
[2] = Table 2, prior-art comparison compounds

SMILES | Ki [1] [nM] | Ki [2] [nM]
CC(O)(C(N)=O)c1ccccc1CC[C@]1(O)CCC2=Cc3c(cnn3-c3ccc(F)cc3)C[C@@]21C (single isomer, unassigned) [Example 150] | 11 | –
C[C@]12Cc3cnn(-c4ccc(F)cc4)c3C=C1CC[C@@]2(O)CCc1ccccc1 [Example 2 WO 2004/075840 A2, reference compound] | – | 5.24
C[C@]12Cc3cnn(-c4ccc(F)cc4)c3C=C1CCC[C@@H]2[C@@H](O)Cc1ccccc1 [Example 22 WO 03/086294 A2, reference compound] | – | 1.27
COC(=O)C1(NC(=O)c2ccccc2CC[C@]2(O)CCC3=Cc4c(cnn4-c4ccc(F)cc4)C[C@@]32C)CC1 [Example 26, methyl 1-[(2-{2-[(4αS,5R)-1-(4-fluorophenyl)-5-hydroxy-4α-methyl-1,4,4α,5,6,7-hexahydrocyclopenta[f]indazol-5-yl]ethyl}benzoyl)amino]cyclopropanecarboxylate] | 1.37 | –
CC(C)CNC(=O)c1ccccc1CC[C@]1(O)CCC2=Cc3c(cnn3-c3ccc(F)cc3)C[C@@]21C [Example 29, 2-{2-[(4αS,5R)-1-(4-fluorophenyl)-5-hydroxy-4α-methyl-1,4,4α,5,6,7-hexahydrocyclopenta[f]indazol-5-yl]ethyl}-N-isobutylbenzamide] | 1.14 | –
CCCNC(=O)c1ccccc1CC[C@]1(O)CCC2=Cc3c(cnn3-c3ccc(F)cc3)C[C@@]21C [Example 30, 2-{2-[(4αS,5R)-1-(4-fluorophenyl)-5-hydroxy-4α-methyl-1,4,4α,5,6,7-hexahydrocyclopenta[f]indazol-5-yl]ethyl}-N-propylbenzamide] | 1.52 | –
CC(CNC(=O)c1ccccc1CC[C@]1(O)CCC2=Cc3c(cnn3-c3ccc(F)cc3)C[C@@]21C)C(F)(F)F (stereo partly drawn) [Example 31, 2-{2-[(4αS,5R)-1-(4-fluorophenyl)-5-hydroxy-4α-methyl-1,4,4α,5,6,7-hexahydrocyclopenta[f]indazol-5-yl]ethyl}-N-(3,3,3-trifluoro-2-methylpropyl)benzamide] | 0.9 | –
C=C(C)CNC(=O)c1ccccc1CC[C@]1(O)CCC2=Cc3c(cnn3-c3ccc(F)cc3)C[C@@]21C [Example 32, 2-{2-[(4αS,5R)-1-(4-fluorophenyl)-5-hydroxy-4α-methyl-1,4,4α,5,6,7-hexahydrocyclopenta[f]indazol-5-yl]ethyl}-N-(2-methylprop-2-en-1-yl)benzamide] | 0.49 | –
C=CCNC(=O)c1ccccc1CC[C@]1(O)CCC2=Cc3c(cnn3-c3ccc(F)cc3)C[C@@]21C [Example 33, N-allyl-2-{2-[(4αS,5R)-1-(4-fluorophenyl)-5-hydroxy-4α-methyl-1,4,4α,5,6,7-hexahydrocyclopenta[f]indazol-5-yl]ethyl}benzamide] | 1.13 | –
CC1(NC(=O)c2ccccc2CC[C@]2(O)CCC3=Cc4c(cnn4-c4ccccc4)C[C@@]32C)CC1 [Example 34, 2-{2-[(4αS,5R)-5-hydroxy-4α-methyl-1-phenyl-1,4,4α,5,6,7-hexahydrocyclopenta[f]indazol-5-yl]ethyl}-N-(1-methylcyclopropyl)benzamide] | 5.29 | –
CC(C)NC(=O)c1ccccc1CC[C@]1(O)CCC2=Cc3c(cnn3-c3ccc(F)cc3)C[C@@]21C [Example 35, 2-{2-[(4αS,5R)-1-(4-fluorophenyl)-5-hydroxy-4α-methyl-1,4,4α,5,6,7-hexahydrocyclopenta[f]indazol-5-yl]ethyl}-N-isopropylbenzamide] | 3.55 | –

More lines, now with the values ahead:

Ki [1] [nM] | Ki [2] [nM] | SMILES
1.8 | – | CC(C(N)=O)c1ccccc1CC[C@]1(O)CCC2=Cc3c(cnn3-c3ccc(F)cc3)C[C@@]21C (single isomer, unassigned) [Example 196]
2.44 | – | C[C@]12Cc3cnn(-c4ccc(F)cc4)c3C=C1CC[C@@]2(O)CCc1ccccc1C(F)C(N)=O (single isomer, unassigned) [Example 198]
2.08 | – | CCNC(=O)c1ccccc1CC[C@]1(O)CCC2=Cc3c(cnn3-c3ccc(F)cc3)C[C@@]21C [Example 2, N-ethyl-2-{2-[(4αS,5R)-1-(4-fluorophenyl)-5-hydroxy-4α-methyl-1,4,4α,5,6,7-hexahydrocyclopenta[f]indazol-5-yl]ethyl}benzamide]
0.44 | – | C[C@]12Cc3cnn(-c4ccc(F)cc4)c3C=C1CC[C@@]2(O)CCc1ccccc1CNS(=O)(=O)C1CC1 [Example 5, N-(2-{2-[(4αS,5R)-1-(4-fluorophenyl)-5-hydroxy-4α-methyl-1,4,4α,5,6,7-hexahydrocyclopenta[f]indazol-5-yl]ethyl}benzyl)cyclopropanesulfonamide]
2.37 | – | C[C@]12Cc3cnn(-c4ccc(F)cc4)c3C=C1CC[C@@]2(O)CCc1ccccc1N1CCC1=O [Example 11, 1-(2-{2-[(4αS,5R)-1-(4-fluorophenyl)-5-hydroxy-4α-methyl-1,4,4α,5,6,7-hexahydrocyclopenta[f]indazol-5-yl]ethyl}phenyl)azetidin-2-one]
6.38 | – | CC(=O)Nc1ccccc1CC[C@]1(O)CCC2=Cc3c(cnn3-c3ccc(F)cc3)C[C@@]21C [Example 14, N-(2-{2-[(4αS,5R)-1-(4-fluorophenyl)-5-hydroxy-4α-methyl-1,4,4α,5,6,7-hexahydrocyclopenta[f]indazol-5-yl]ethyl}phenyl)acetamide]
1.17 | – | C[C@]12Cc3cnn(-c4ccc(F)cc4)c3C=C1CC[C@@]2(O)CCc1ccccc1NS(=O)(=O)C1CC1 [Example 15, N-(2-{2-[(4αS,5R)-1-(4-fluorophenyl)-5-hydroxy-4α-methyl-1,4,4α,5,6,7-hexahydrocyclopenta[f]indazol-5-yl]ethyl}phenyl)cyclopropanesulfonamide]
1.13 | – | C[C@]12Cc3cnn(-c4ccc(F)cc4)c3C=C1CC[C@@]2(O)CCc1ccccc1S(C)(=O)=O [Example 19, (4αS,5R)-1-(4-fluorophenyl)-4α-methyl-5-{2-[2-(methylsulfonyl)phenyl]ethyl}-1,4,4α,5,6,7-hexahydrocyclopenta[f]indazol-5-ol]
5.09 | – | CNC(=O)Cc1ccccc1CC[C@]1(O)CCC2=Cc3c(cnn3-c3ccc(F)cc3)C[C@@]21C [Example 23, 2-(2-{2-[(4αS,5R)-1-(4-fluorophenyl)-5-hydroxy-4α-methyl-1,4,4α,5,6,7-hexahydrocyclopenta[f]indazol-5-yl]ethyl}phenyl)-N-methylacetamide]
3.55 | – | CC1(NC(=O)c2ccccc2CC[C@]2(O)CCC3=Cc4c(cnn4-c4ccc(F)cc4)C[C@@]32C)CC1 [Example 28, 2-{2-[(4αS,5R)-1-(4-fluorophenyl)-5-hydroxy-4α-methyl-1,4,4α,5,6,7-hexahydrocyclopenta[f]indazol-5-yl]ethyl}-N-(1-methylcyclopropyl)benzamide]
